Among the test systems are SNB-19 CNS; SNB-75 CNS; CCRF-CEM leukemia; LOX IMVI melanoma; HOP-92 NSCLC; NCI-H460 lung; HCC-2998 colon; SN12C renal; OVCAR-3 ovarian; EKVX NSCLC.
Holding throughout (assay): NCI-60 cell line screen, 48 h

The structures appear in SMILES notation.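 48-hour exposure; five concentrations; linearly interpolated endpoints. At the GI50, growth is halved. At the TGI there is no net growth.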

`COc1ccc(-c2nc3sc(-c4cc(OC)c(OC)c(OC)c4)nn3c2/C=C2/C(=O)Nc3ccc(F)cc32)cc1`: the GI50 in the assay on SNB-19 CNS is 15.1 µM; with SNB-75 CNS it was 10.3 µM; with CCRF-CEM leukemia, 5.49 µM; in the assay on LOX IMVI melanoma it was 6.88 µM; with HOP-92 NSCLC, 2.02 µM; in the assay with NCI-H460 lung, 3.42 µM. Besides, the GI50 with HCC-2998 colon was 5.25 µM; in the assay with SN12C renal it was 14.2 µM; with OVCAR-3 ovarian, 2.32 µM. Besides, the TGI in the assay with SNB-19 CNS was 44 µM; with SNB-75 CNS, 22.6 µM; in the assay on CCRF-CEM leukemia, over 100 µM; in the assay on LOX IMVI melanoma, 37.6 µM; with HOP-92 NSCLC, 9.48 µM; in the assay with NCI-H460 lung, 15.3 µM. The TGI in the assay with HCC-2998 colon is 22 µM; in the assay with SN12C renal it was 40.1 µM; with OVCAR-3 ovarian, 5.27 µM.

`O=C1C=C(Nc2ccccc2)c2ccccc2C1=O`: the GI50 with SNB-19 CNS is 2.2 µM; in the assay on SNB-75 CNS, 1.32 µM; in the assay with CCRF-CEM leukemia, 3.54 µM; in the assay on LOX IMVI melanoma it was 1.51 µM; in the assay with HOP-92 NSCLC it was 2.73 µM; with NCI-H460 lung, 2.44 µM. Besides, the GI50 is 2.02 µM in the assay on HCC-2998 colon, 1.62 µM in the assay on SN12C renal and 1.96 µM with OVCAR-3 ovarian. Moreover, the TGI was determined as 6.73 µM with SNB-19 CNS; 2.67 µM in the assay on SNB-75 CNS; 14.7 µM in the assay on CCRF-CEM leukemia; 3.17 µM in the assay on LOX IMVI melanoma; 13.2 µM with HOP-92 NSCLC; 6.47 µM in the assay on NCI-H460 lung. Also, the TGI with HCC-2998 colon was found to be 4.62 µM; in the assay on SN12C renal, 3.11 µM; in the assay on OVCAR-3 ovarian, 5.27 µM.

Regarding `Cc1cc(N(CCC#N)CCC#N)ccc1/C=C(\NC(=O)/C=C/c1ccccc1)C(=O)N=[N+]=[N-]`, the TGI in the assay with SNB-19 CNS was over 100 µM; with SNB-75 CNS, 62 µM; with CCRF-CEM leukemia it was over 100 µM; in the assay with EKVX NSCLC, over 100 µM; in the assay on LOX IMVI melanoma it was over 100 µM; in the assay with NCI-H460 lung it was over 100 µM. Besides, the TGI in the assay with HCC-2998 colon, with SN12C renal and with OVCAR-3 ovarian was over 100 µM each time.

As for `O=C(CCCc1ccc(N(CCCl)CCCl)cc1)NCc1ccccc1`, the GI50 in the assay with SNB-19 CNS is 18.7 µM; in the assay on SNB-75 CNS, 3.49 µM; in the assay on CCRF-CEM leukemia, 3.24 µM; in the assay with EKVX NSCLC, 21.6 µM; in the assay on LOX IMVI melanoma, 5.37 µM; in the assay with NCI-H460 lung it was 2.81 µM. For the same compound, the results for the GI50 with HCC-2998 colon, with SN12C renal and with OVCAR-3 ovarian were 15.4 µM, 4.41 µM and 13.7 µM, respectively. The TGI in the assay with SNB-19 CNS was over 100 µM; in the assay with SNB-75 CNS, 33 µM; in the assay with CCRF-CEM leukemia it was 25.4 µM; in the assay on EKVX NSCLC, 91.5 µM; in the assay on LOX IMVI melanoma, 23.9 µM; in the assay with NCI-H460 lung, 59.4 µM. Also, the TGI in the assay on HCC-2998 colon was 36.4 µM; in the assay with SN12C renal, over 100 µM; with OVCAR-3 ovarian, 38.1 µM.

With `CC(C)=CCC/C(C)=C/CC/C(C)=C/CSC[C@H](NC(=O)CCCCCN1CCN(C)CC1)C(=O)NC1CCCCCC1`, the GI50 with SNB-19 CNS was 2.02 µM; in the assay on SNB-75 CNS it was 1.53 µM; in the assay with CCRF-CEM leukemia, 2.35 µM; in the assay with LOX IMVI melanoma it was 1.76 µM; in the assay on HOP-92 NSCLC, 2.3 µM; in the assay with NCI-H460 lung, 1.93 µM. Besides, the GI50 in the assay with HCC-2998 colon is 1.84 µM; in the assay on SN12C renal it was 2.05 µM; with OVCAR-3 ovarian, 2.06 µM. The TGI in the assay with SNB-19 CNS stood at 4.43 µM; in the assay on SNB-75 CNS it was 4.22 µM; in the assay on CCRF-CEM leukemia it was 7.07 µM; in the assay on LOX IMVI melanoma, 3.29 µM; with HOP-92 NSCLC, 8.39 µM; in the assay with NCI-H460 lung, 3.69 µM. The TGI is 3.61 µM in the assay with HCC-2998 colon, 4.51 µM in the assay on SN12C renal and 4.1 µM in the assay on OVCAR-3 ovarian.

On to `Cn1cc(C2=C(c3ccsc3)C(=O)NC2=O)c2ccccc21`, for which the GI50 in the assay on SNB-19 CNS was over 25 µM; with SNB-75 CNS it was 1.07 µM; in the assay on CCRF-CEM leukemia, over 21.1 µM; in the assay with LOX IMVI melanoma, over 25 µM; with NCI-H460 lung, over 25 µM; with HCC-2998 colon it was over 25 µM. Besides, the GI50 with SN12C renal was over 25 µM; in the assay with OVCAR-3 ovarian it was 17.2 µM. The TGI in the assay on SNB-19 CNS, in the assay with SNB-75 CNS, with CCRF-CEM leukemia, in the assay on LOX IMVI melanoma, in the assay on NCI-H460 lung and in the assay with HCC-2998 colon was over 25 µM in each case. Further, the TGI in the assay on SN12C renal and with OVCAR-3 ovarian was over 25 µM in each case.

`O=C1NC(=O)C(c2c[nH]c3ccccc23)=C1c1c[nH]c2ccccc12`: the GI50 is over 25 µM in the assay with SNB-19 CNS; 4.11 µM in the assay on SNB-75 CNS; 10.5 µM with CCRF-CEM leukemia; 5.31 µM with LOX IMVI melanoma; 5.72 µM in the assay with HOP-92 NSCLC; 10.6 µM in the assay with NCI-H460 lung. For the same compound, the GI50 with HCC-2998 colon was 16.2 µM; in the assay on SN12C renal, 16.3 µM; with OVCAR-3 ovarian, 17.5 µM. Further, the TGI with SNB-19 CNS, in the assay on SNB-75 CNS, in the assay on CCRF-CEM leukemia, in the assay with LOX IMVI melanoma, in the assay on HOP-92 NSCLC and in the assay with NCI-H460 lung was over 25 µM each time. Besides, the TGI in the assay on HCC-2998 colon, in the assay on SN12C renal and in the assay with OVCAR-3 ovarian was over 25 µM in each case.

Turning to `Cc1ccc(S(=O)c2ccccc2[N+](=O)[O-])cc1` (configuration not stated), the TGI in the assay on SNB-19 CNS, in the assay on CCRF-CEM leukemia, in the assay with LOX IMVI melanoma, with HOP-92 NSCLC, with NCI-H460 lung and in the assay on HCC-2998 colon was over 100 µM in each case. Further, the TGI in the assay on SN12C renal and in the assay on OVCAR-3 ovarian was over 100 µM each time.

Turning to `O=C([CH-]C(=O)c1ccccc1)c1ccccc1.O=C([CH-]C(=O)c1ccccc1)c1ccccc1.O=C([CH-]C(=O)c1ccccc1)c1ccccc1.[Ga+3]`, the GI50 was over 100 µM in the assay with SNB-19 CNS; 64.7 µM in the assay on SNB-75 CNS; 18 µM in the assay on LOX IMVI melanoma; over 100 µM in the assay on HOP-92 NSCLC; 16.3 µM in the assay on NCI-H460 lung; 43.8 µM with SN12C renal. Moreover, the GI50 in the assay with OVCAR-3 ovarian was over 100 µM. Also, the TGI with SNB-19 CNS, with SNB-75 CNS, in the assay with LOX IMVI melanoma, with HOP-92 NSCLC, with NCI-H460 lung and in the assay on SN12C renal was over 100 µM in each case. The compound further returned a TGI with OVCAR-3 ovarian of over 100 µM.

The values above are taken from PubChem BioAssay (NCI).
